Results on three compounds are retold here after paper PMC11329750 (Clinical and Translational Science, 2024).

Data set [1] relates to CYP3A. Kind of data set: Oral midazolam microdose. The class given is in vivo, human. The note with it: for F GMR: GMR (90% CI); for bioavailability: F (absolute bioavailability).
In data set [2] the test system is CYP3A. Kind of data set: Intravenous midazolam microdose. Type of data set: in vivo, human.
Data set [3] has as its system CYP3A. The note with it: 900 mg SJW daily, same brand; cited from earlier work.
Data set [4] concerns CYP3A. Kind of data set: Limited-sampling strategy. Conditions: human, in vivo, po, 30 ug.
For data set [5] the following is noted: 900 mg SJW of another brand; absence of autoinduction; cited from earlier work.
The conditions of data set [6]: cited from earlier work.
The mark [7] stands for this setting: SJW 1800 + rifampin 600 for 7 days vs SJW 1800.

Structures are written as SMILES.

`Cc1ncc2n1-c1ccc(Cl)cc1C(c1ccccc1F)=NC2` [midazolam]: in the data set with CYP3A [1] (30 μg midazolam orally, SJW 1800 + rifampin 600 vs baseline), the “F GMR” value is recorded as 0.2070 (0.1704–0.2516). Besides, the “F GMR” value in the data set with CYP3A [1] (30 μg midazolam orally, SJW 1800 vs baseline) is given as 0.4437 (0.3735–0.5271). The CL/F with CYP3A [1] (30 μg midazolam orally, baseline, GM (95% CI)) was 1649 (1290–2109) mL min^−1. Moreover, the “further increase of midazolam CL orally” value in the data set on CYP3A [1] (setting [7]) came out at 3.06 fold. In addition, in the data set with CYP3A [1] (human, plasma, po, 30 ug), the AUC(0-inf) was determined as 0.303 ng·h/mL, the AUC(0-t) came to 0.258 ng·h/mL, the Cmax is 0.139 ng/mL and the Vd/F amounted to 422 L. Further, in the data set with CYP3A [1] (human, plasma, po, 30 ug, 30 μg midazolam orally, SJW 1800 mg/day for 14 days, GM (95% CI)), the bioavailability turned out to be 15.6%. The bioavailability in the data set on CYP3A [1] (human, plasma, po, 30 ug, 30 μg midazolam orally, baseline, GM (95% CI)) was determined as 35.1%. Moreover, in the data set on CYP3A [2] (setting [7]), the “further increase of midazolam CL i.v.” value is listed as 1.43 fold. This compound also had an area under the curve AUC(0-inf) in the data set on CYP3A [2] (human, plasma, intravenous, 10 ug) of 0.287 ng·h/mL. Further, in the data set with CYP3A [2] (human, plasma, iv, 10 ug), the AUC(0-inf) is 0.334 ng·h/mL, the Vd turned out to be 148 L and the half-life was 2.97 h. The “fold increase of midazolam clearance with a regular midazolam dose” value in the data set on CYP3A [3] is 4.22. Further, the AUC in the data set with CYP3A [4] stood at 0.0657 ng·h/mL.
Turning to `NC(=O)N1c2ccccc2C=Cc2ccccc21` [carbamazepine], in data set [5], the “reduction of exposure to single carbamazepine doses” value was 21%.
For `CO[C@H]1/C=C/O[C@@]2(C)Oc3c(C)c(O)c4c(O)c(c(/C=N/N5CCN(C)CC5)c(O)c4c3C2=O)NC(=O)/C(C)=C\C=C\[C@H](C)[C@H](O)[C@@H](C)[C@@H](O)[C@@H](C)[C@H](OC(C)=O)[C@@H]1C` [rifampin], in data set [6], the “daily doses at which maximum induction is already reached” value is 300 to 600 mg.

As usually defined, the AUC(0-inf) is total exposure, with the tail of the curve extrapolated. The term AUC(0-t) denotes exposure summed from dosing to a finite time, without extrapolation to infinity. As usually defined, the Cmax is the highest concentration seen after dosing. In general, Vd/F refers to the apparent distribution volume after extravascular dosing. In general, bioavailability refers to dose-corrected exposure relative to a reference, in per cent. Read a low bioavailability as little systemic uptake. Broadly, the Vd is a proportionality between amount in the body and measured concentration, not a real space. A lower Vd goes with little distribution into tissue. For orientation: half-life means how long it takes for the measured level to halve. Usually AUC stands for concentration integrated over time.
